From ChEMBL document CHEMBL3886657, “Imidazopyridin-2-one derivatives” (2016)

Molecular target: Metabotropic glutamate receptor 2 (Homo sapiens, UniProt Q14416)
Experiment: [35S]-GTPγS Assay: The stimulation of [35S]-GTPγS binding is a common functional assay to monitor Gαi-coupled receptor in native and recombinant receptor membrane preparation. Membrane from cells stably expressing hmGlu2 CHO-K1 (50 μg) are incubated in a 96 well plate for 1 hour in the presence of GTPγS35 (0.05 nM), GDP (5 μM) and compounds. The reaction is stopped by rapid filtration over Unifilter GF/B plate (Packard, Bioscience, Meriden Conn.) using a 96-well cell harvester (Brandel Gaithersburg, Md.). The filter plates are counted using Topcount counter (Packard, Bioscience, Meriden Conn., USA). When compounds are evaluated as potentiators they are tested in the presence of glutamate (1 μM).

Sequence of Metabotropic glutamate receptor 2 (Q14416 whole entry): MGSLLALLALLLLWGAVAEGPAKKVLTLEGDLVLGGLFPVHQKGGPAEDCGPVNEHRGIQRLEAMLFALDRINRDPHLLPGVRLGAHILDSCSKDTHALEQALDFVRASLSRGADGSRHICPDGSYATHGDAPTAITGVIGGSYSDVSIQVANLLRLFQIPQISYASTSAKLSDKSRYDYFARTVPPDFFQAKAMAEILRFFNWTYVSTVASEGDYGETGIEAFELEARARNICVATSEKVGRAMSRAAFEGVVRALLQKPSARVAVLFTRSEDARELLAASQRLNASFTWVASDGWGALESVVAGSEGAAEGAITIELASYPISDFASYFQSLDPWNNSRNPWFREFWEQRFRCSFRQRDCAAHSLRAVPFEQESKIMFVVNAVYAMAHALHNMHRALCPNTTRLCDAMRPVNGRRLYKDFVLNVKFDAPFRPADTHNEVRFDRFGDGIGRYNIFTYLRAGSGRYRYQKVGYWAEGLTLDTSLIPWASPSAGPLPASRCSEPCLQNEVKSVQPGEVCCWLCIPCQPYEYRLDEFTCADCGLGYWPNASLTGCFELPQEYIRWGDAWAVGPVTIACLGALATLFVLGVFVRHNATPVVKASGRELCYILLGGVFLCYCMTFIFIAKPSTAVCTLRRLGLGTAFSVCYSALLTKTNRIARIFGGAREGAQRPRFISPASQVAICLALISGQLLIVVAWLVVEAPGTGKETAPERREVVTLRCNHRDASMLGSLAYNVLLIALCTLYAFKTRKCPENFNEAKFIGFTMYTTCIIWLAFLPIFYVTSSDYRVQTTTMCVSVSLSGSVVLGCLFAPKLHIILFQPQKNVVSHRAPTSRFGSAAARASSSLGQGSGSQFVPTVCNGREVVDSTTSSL

SMILES | EC50
Cn1c(=O)n(CC(C)(C)C)c2ccc(C3=CC4CN(C(=O)c5ncco5)CC4C3)nc21 (configuration not stated) | 54.7 nM
Cn1c(=O)n(CC(C)(C)C)c2ccc(C3=CC4CCC3CN4C(=O)Cn3cncn3)nc21 (configuration not stated) | 115 nM
Cn1c(=O)n(CC(C)(C)C)c2ccc(C3=CC4CCC3CN4C(=O)c3csnn3)nc21 (configuration not stated) | 69.3 nM
Cn1c(=O)n(CC2CC2(F)F)c2ccc(C3=CC4CCC3CN4C(=O)c3ccon3)nc21 (configuration not stated) | 26.6 nM
Cn1c(=O)n(CC(C)(C)C)c2ccc(C3=CC4CCC3CN4C(=O)C3CC3)nc21 (configuration not stated) | 215 nM
Cn1c(=O)n(CC(C)(C)C)c2ccc(C3=CC4CCC3CN4C(=O)c3ncco3)nc21 (configuration not stated) | 17.9 nM
Cn1c(=O)n(CC(C)(C)C)c2ccc(C3=CC4CCC3CN4C(=O)c3cccnc3)nc21 (configuration not stated) | 299 nM

Further lines, results first:

EC50 | SMILES
2820 nM | Cn1c(=O)n(CC(C)(C)C)c2ccc(C3=CC4CN(C(=O)CO)CC4C3)nc21 (configuration not stated)
51.4 nM | Cn1c(=O)n(CC(C)(C)C)c2ccc(C3=CC4CN(C(=O)C5(O)CCC5)CC4C3)nc21 (configuration not stated)
248 nM | Cn1c(=O)n(CC2CC2(F)F)c2ccc(C3=CC4CN(C(=O)c5ncco5)CC4C3)nc21 (configuration not stated)
88.6 nM | CN1c2nc(C3=CC4CN(C(=O)C(C)(C)O)CC4C3)ccc2N(CC2CC2(F)F)S1(=O)=O (configuration not stated)
40.6 nM | CC1C(c2ccc3c(n2)N(C)S(=O)(=O)N3CC2CC2(F)F)C1C(C)(C)O (configuration not stated)
